This is an account of results in ChEMBL document CHEMBL5036344, “Design and application of hybrid cyclic-linear peptide-doxorubicin conjugates as a strategy to overcome doxorubicin resistance and toxicity” (Eur J Med Chem, 2021).

Structures are written as SMILES. Active and inactive are the calls of the source. No cut-off for these calls is given here.

The test system of series [1] is CCRF-CEM. Briefly: Cytotoxicity against human CCRF-CEM cells assessed as reduction in cell viability at 5 uM incubated for 72 hrs by MTT assay. Type of series: functional.
Series [2] deals with H9c2. The experiment in a line: Cytotoxicity against rat H9c2 cells assessed as change in cell morphology at 5uM measured after 72 hours. Type of series: cell-based. The settings on record: h9c2, 72 h.
The subject of series [3] is AGS. Briefly: Cytotoxicity against human AGS cells assessed as reduction in cell viability at 5 uM incubated for 72 hrs by MTT assay. The series is classed as functional. A general note: Tetrazolium assays rely on reduction of a dye to a coloured formazan, in cell work by metabolically active cells.
Series [4] concerns LLC-PK1. Briefly: Cytotoxicity against pig LLC-PK1 cells assessed as reduction in cell viability at 5 uM incubated for 72 hrs by MTT assay. The series is classed as cell-based, Sus scrofa. As to conditions: llc-pk1, 72 h.
In series [5] the test system is MDA-MB-231. Briefly: Cytotoxicity against wild type human MDA-MB-231 cells assessed as reduction in cell viability incubated for 72 hrs by MTT assay. The series is classed as functional. As to conditions: read-out: LC50 (the source's name).
Series [6] has as its system H9c2. Briefly: Cytotoxicity against rat H9c2 cells assessed as reduction in cell viability at 5 uM incubated for 24 hrs by MTT assay. Type of series: cell-based. As to conditions: h9c2, 24 h.
The nature of series [7]: Drug uptake in nucleus of human SK-OV-3 cells incubated for 3 hrs by fluorescence microscopy. Type of series: ADME, subcellular. The settings on record: sk-ov-3, 3 h.
Series [8] deals with SK-OV-3. The experiment in a line: Cytotoxicity against human SK-OV-3 cells assessed as reduction in cell viability at 5 uM incubated for 72 hrs by MTT assay. Type of series: functional.
Series [9] relates to CCRF-CEM. Briefly: Cytotoxicity against human CCRF-CEM cells assessed as reduction in cell viability at 5 uM incubated for 24 hrs by MTT assay. The series is classed as functional.
Another series is filed under the species Rattus norvegicus. The experiment in a line: Drug uptake in nucleus of rat H9c2 cells measured after 24 hrs by DAPI staining based confocal microscopy analysis. Type of series: ADME, cell-based. The settings on record: h9c2, 24 h.
A further series has as its system MES-SA. Briefly: Cytotoxicity against human MES-SA cells assessed as reduction in cell viability incubated for 72 hrs by MTT assay. The series is classed as functional. As to conditions: read-out: LC50 (the source's name).
The subject of series [10] is H9c2. The experiment in a line: Cytotoxicity against rat H9c2 cells assessed as reduction in cell viability at 5 uM incubated for 72 hrs by MTT assay. The series is classed as cell-based. As to conditions: h9c2, 72 h.
The test system of series [11] is LLC-PK1. The experiment in a line: Cytotoxicity against pig LLC-PK1 cells assessed as reduction in cell viability at 5 uM incubated for 24 hrs by MTT assay. Type of series: cell-based, Sus scrofa. As to conditions: llc-pk1, 24 h.
The test system of series [12] is AGS. Briefly: Cytotoxicity against human AGS cells assessed as reduction in cell viability at 5 uM incubated for 24 hrs by MTT assay. The series is classed as functional.
Series [13] has as its system SK-OV-3. Briefly: Cytotoxicity against human SK-OV-3 cells assessed as reduction in cell viability at 5 uM incubated for 24 hrs by MTT assay. Type of series: functional.
Series [14] deals with MDA-MB-231. The experiment in a line: Cytotoxicity against doxorubicin resistant human MDA-MB-231 cells assessed as reduction in cell viability incubated for 72 hrs by MTT assay. As to conditions: read-out: LC50 (the source's name). The series is classed as functional.
Series [15] relates to H9c2. The experiment in a line: Cytotoxicity against rat H9c2 cells assessed as reduction in cell viability at 5 uM incubated for 96 hrs by MTT assay. The series is classed as cell-based. As to conditions: h9c2, 96 h.
The nature of series [16]: Drug uptake in nucleus of human MDA-MB-231 cells by confocal microscopy in the presence of 20 ug/mL chlorpromazine. The series is classed as ADME, subcellular.
The subject of series [17] is CCRF-CEM. The experiment in a line: Cytotoxicity against human CCRF-CEM cells assessed as reduction in cell viability at 25 uM incubated for 24 hrs by MTT assay. The series is classed as functional.
A short description of series [18]: Drug uptake in human SK-OV-3 cells assessed as doxorubicin fluorescence incubated for 3 hrs by fluorescence microscopy. As to conditions: sk-ov-3, 3 h. The series is classed as ADME, cell-based.
For series [19], the system named is SK-OV-3. The experiment in a line: Cytotoxicity against human SK-OV-3 cells assessed as reduction in cell viability at 10 uM incubated for 72 hrs by MTT assay. The series is classed as functional.
In series [20] the test system is H9c2. The experiment in a line: Cytotoxicity against rat H9c2 cells assessed as reduction in cell viability at 25 uM incubated for 24 hrs by MTT assay. The series is classed as cell-based. As to conditions: h9c2, 24 h.
Series [21] is described as follows: Drug uptake in human SK-OV-3 cells at 5 uM incubated for 24 hrs by fluorescence microscopy. The series is classed as ADME, cell-based. As to conditions: sk-ov-3, 24 h.
Series [22] in a line: Drug uptake in rat H9c2 cells assessed as doxorubicin fluorescence measured at 24 to 72 hrs by fluorescence microscopy analysis. Type of series: ADME, cell-based. The settings on record: time 24-72 hrs.
Series [23] deals with H9c2. The experiment in a line: Cytotoxicity against rat H9c2 cells assessed as reduction in cell viability at 25 uM incubated for 96 hrs by MTT assay. Type of series: cell-based. The settings on record: h9c2, 96 h.
Series [24] is described as follows: Drug uptake in nucleus of human MDA-MB-231 cells by confocal microscopy in the presence of 6 ug/mL chloroquine. The series is classed as ADME, subcellular.
Series [25] concerns LLC-PK1. Briefly: Cytotoxicity against pig LLC-PK1 cells assessed as reduction in cell viability at 10 uM incubated for 24 to 72 hrs by MTT assay. The series is classed as cell-based, Sus scrofa. As to conditions: llc-pk1, 10 µM, time 24-72 hrs.
Series [26] can be described thus: Drug uptake in human MDA-MB-231 cells by flow cytometry in the presence of 100 uM chloroquine. The series is classed as ADME, cell-based. On the technique in general: In flow cytometry, cells or beads pass a laser one at a time.
The subject of series [27] is H9c2. Briefly: Cytotoxicity against rat H9c2 cells assessed as reduction in cell viability at 25 uM incubated for 72 hrs by MTT assay. Type of series: cell-based. As to conditions: h9c2, 72 h.
The subject of series [28] is H9c2. The experiment in a line: Cytotoxicity against rat H9c2 cells assessed as reduction in cell viability at 5 to 10 uM incubated upto 96 hrs by MTT assay. The series is classed as cell-based. The settings on record: h9c2, 96 h, dose 5-10 µM.
A short description of series [29]: Stability of compound in 10% FBS assessed as parent compound remaining after 24 hrs by HPLC analysis. The series is classed as ADME. As to conditions: cattle, 10% FBS (fetal bovine serum), read-out: Stability.
For series [30], the system named is AGS. The experiment in a line: Cytotoxicity against human AGS cells assessed as reduction in cell viability incubated for 72 hrs by MTT assay. Type of series: functional.
The subject of series [31] is CCRF-CEM. Briefly: Cytotoxicity against human CCRF-CEM cells assessed as reduction in cell viability at 5 to 10 uM incubated for 24 hrs by MTT assay. Type of series: functional, cell-based. As to conditions: dose 5-10 µM.
The nature of series [32]: Drug uptake in nucleus of human MDA-MB-231 cells by confocal microscopy in the presence of 50 ug/mL genistein. The series is classed as ADME, subcellular.
A short description of series [33]: Protein binding in 20% FBS by HPLC analysis. Type of series: ADME, cell-free, Bos taurus. As to conditions: cattle, serum.
Series [34] is described as follows: Drug uptake in human MDA-MB-231 cells by flow cytometry in the presence of 2.5 mM methyl-beta-cyclodextrin. The series is classed as ADME, cell-based.
Series [35] has as its system LLC-PK1. Briefly: Cytotoxicity against pig LLC-PK1 cells assessed as reduction in cell viability at 50 uM by MTT assay. Type of series: cell-based, Sus scrofa. As to conditions: llc-pk1, 50 µM.
Series [36] can be described thus: Drug uptake in human MDA-MB-231 cells by flow cytometry in the presence of 30 uM chlorpromazine. Type of series: ADME, cell-based.
Series [37] concerns CCRF-CEM. The experiment in a line: Cytotoxicity against human CCRF-CEM cells assessed as reduction in cell viability at 5 to 25 uM after 72 hrs incubation by MTT assay. Type of series: functional. The settings on record: dose 5-25 µM.
Series [38] relates to SK-OV-3. Briefly: Cytotoxicity against human SK-OV-3 cells assessed as reduction in cell viability at 25 uM incubated for 72 hrs by MTT assay. Type of series: functional.
The nature of series [39]: Drug uptake in nucleus of human MDA-MB-231 cells by confocal microscopy in the presence of 50 ug/mL nystatin. The series is classed as ADME, subcellular.
For series [40], the system named is AGS. The experiment in a line: Cytotoxicity against human AGS cells assessed as reduction in cell viability at 5 to 10 uM incubated for 24 hrs by MTT assay. The series is classed as functional, cell-based. As to conditions: dose 5-10 µM.
The nature of series [41]: Drug uptake in human MDA-MB-231cells by flow cytometry in the presence of 50 ug/mL nystatin. Type of series: ADME.

On to `COc1cccc2c1C(=O)c1c(O)c3c(c(O)c1C2=O)C[C@@](O)(C(=O)CO)C[C@@H]3O[C@H]1C[C@H](N)[C@H](O)[C@H](C)O1` [DOXORUBICIN], for which the Activity in the series with CCRF-CEM [1] is on record as 85%; in the series with H9c2 [2], “Toxic”; with AGS [3], 87%; with LLC-PK1 [4] it was 77%; in the series with H9c2 [6], 20%; with SK-OV-3 [8], 33%. The Activity is 52% with CCRF-CEM [9]; 44% with H9c2 [10]; 64% in the series with LLC-PK1 [11]; 46% with AGS [12]; 27% with SK-OV-3 [13]; 44% in the series on H9c2 [15]. Also, the CC50 worked out at 0.45 µM in the series with MDA-MB-231 [5], 4.3 µM in the series on MES-SA and 2.3 µM in the series on MDA-MB-231 [14]. Further, the Drug uptake entry (in series [7]; in the series listed under Rattus norvegicus) was “Active” throughout.

On to `COc1cccc2c1C(=O)c1c(O)c3c(c(O)c1C2=O)C[C@@](O)(C(=O)COC(=O)CCCC(=O)NCCC(=O)N[C@@H](Cc1c[nH]c2ccccc12)C(=O)N[C@@H](Cc1c[nH]c2ccccc12)C(=O)N[C@@H](Cc1c[nH]c2ccccc12)C(=O)N[C@@H](Cc1c[nH]c2ccccc12)C(=O)N[C@@H](Cc1c[nH]c2ccccc12)C(=O)N[C@@H](Cc1c[nH]c2ccccc12)C(=O)N[C@@H](Cc1c[nH]c2ccccc12)C(=O)NCCCC[C@@H]1NC(=O)[C@H](CCCNC(=N)N)NC(=O)[C@H](CCCNC(=N)N)NC(=O)[C@H](CCCNC(=N)N)NC(=O)[C@H](CCCNC(=N)N)NC(=O)[C@H](CCCNC(=N)N)NC1=O)C[C@@H]3O[C@H]1C[C@H](N)[C@H](O)[C@H](C)O1`, for which the Drug uptake result is “Active” in [16]; “Not Active” in series [18]; “Active” in series [21]; “Not Active” in [22]; “Active” in series [24]; “Active” in series [26]. Besides, the Drug uptake entry is on record as “Active” in [32]; 72% in series [34]; 78% in [36]; “Active” in [39]; “Active” in series [41]. The Activity in the series on CCRF-CEM [17] is on record as 64%; with SK-OV-3 [19], 39%; in the series on H9c2 [20], 68%; in the series with H9c2 [23], 39%; in the series on LLC-PK1 [25] it was “Non-Toxic”; with SK-OV-3 [8], 29%. Moreover, the Activity in the series with H9c2 [27] was 37%; with H9c2 [28], “Non-Toxic”; with AGS [30] it was 73%; in series [33], “Active”; with LLC-PK1 [35], 33%; in the series on CCRF-CEM [37] it was 84%. In addition, in the series on SK-OV-3 [38], the Activity worked out at 48%. The CC50 stood at 0.56 µM in the series with MDA-MB-231 [5], 41 µM in the series with MES-SA and 36 µM with MDA-MB-231 [14]. Besides, the remaining at 24 h in series [29] was found to be 25%. The outcome with CCRF-CEM [31] was Active. In addition, in the series on AGS [40], the result was inactive.
